Values after ≈ are worked out from the molar mass of the structure shown. Active and inactive are the calls of the source. The calls are words filed in the database; no cut-off is given here.
Experiments:
[1] = system: Mycolicibacterium smegmatis; assay: Antitubercular against Mycobacterium smegmatis ATCC 607 by agar dilution method; format: functional
[2] = system: Mycobacterium tuberculosis; assay: Antitubercular against Mycobacterium tuberculosis H37Rv infected in mouse assessed as host survival at 75 mg/kg/day administered with food for 19 days measured on day 30; format: functional, organism-based
[3] = system: Mycobacterium tuberculosis; assay: Antitubercular against Mycobacterium tuberculosis H37Rv infected in mouse assessed as host survival at 5 mg/kg/day administered with food for 19 days measured on day 30; format: functional, organism-based
[4] = system: Mycobacterium tuberculosis; assay: Antitubercular against Mycobacterium tuberculosis H37Rv infected in mouse assessed as host survival at 19 mg/kg/day administered with food for 19 days measured on day 30; format: functional, organism-based
[5] = system: Mycobacterium tuberculosis; assay: Antitubercular against Mycobacterium tuberculosis H37Rv infected in mouse assessed as host survival at 2.5 mg/kg/day administered with food for 19 days measured on day 30; format: functional, organism-based
[6] = system: Mycobacterium tuberculosis; assay: Antitubercular against Mycobacterium tuberculosis H37Rv infected in mouse assessed as host survival at 9 mg/kg/day administered with food for 19 days measured on day 30; format: functional, organism-based

| Compound | MIC [1] | further results |
| --- | --- | --- |
| c1cc2nc3ccc(CN4CCCCC4)cc3nc2cc1CN1CCCCC1 | 62 µg/mL (≈ 166 µM) |  |
| CC[C@@H](CO)NCCN[C@@H](CC)CO [ETHAMBUTOL] | 0.5 µg/mL (≈ 2.45 µM) |  |
| CCCCCN(CCCCC)Cc1ccc2nc3ccc(CN(CCCCC)CCCCC)cc3nc2c1 | 62 µg/mL (≈ 119 µM) |  |
| Cl.c1ccc(N2CCN(Cc3ccc4nc5ccc(CN6CCN(c7ccccn7)CC6)cc5nc4c3)CC2)nc1 | 125 µg/mL |  |
| CC1CN(Cc2ccc3nc4ccc(CN5CC(C)NC(C)C5)cc4nc3c2)CC(C)N1.Cl (stereo not drawn) | 62 µg/mL |  |
| CCN(CC)Cc1ccc2nc3ccc(CN(CC)CC)cc3nc2c1.Cl | 5 µg/mL |  |
| CCCCN(CCCC)Cc1ccc2nc3ccc(CN(CCCC)CCCC)cc3nc2c1.Cl | 2.5 µg/mL | Activity [2]: Active; Activity [3]: inactive; Activity [4]: inactive |
| CCCCCCCN(CCCCCCC)Cc1ccc2nc3ccc(CN(CCCCCCC)CCCCCCC)cc3nc2c1 | 62 µg/mL (≈ 98.2 µM) |  |
| CCCCCCCCN(CCCCCCCC)Cc1ccc2nc3ccc(CN(CCCCCCCC)CCCCCCCC)cc3nc2c1 | 62 µg/mL (≈ 90.2 µM) |  |
| CN1CCN(Cc2ccc3nc4ccc(CN5CCN(C)CC5)cc4nc3c2)CC1 | 62 µg/mL (≈ 153 µM) |  |
| NNC(=O)c1ccncc1 [ISONIAZID] | 0.05 µg/mL (≈ 0.365 µM) | Activity [5]: inactive; Activity [6]: Active |
| CCCCCCN(CCCCCC)Cc1ccc2nc3ccc(CN(CCCCCC)CCCCCC)cc3nc2c1 | 62 µg/mL (≈ 108 µM) |  |
| Cl.c1ccc(CN2CCN(Cc3ccc4nc5ccc(CN6CCN(Cc7ccccc7)CC6)cc5nc4c3)CC2)cc1 | 10 µg/mL |  |
